Laboratory results as given in publication PMC7600679, “Benzoxazole-Based Metal Complexes to Reverse Multidrug Resistance in Bacteria” (Antibiotics, 2020).

Legend:
[1] = test system: S. aureus MRSA 272123; assay: Resistance modulation (MIC reduction) assay with CIP and TET; type: cell-based, Staphylococcus aureus; conditions: for Reduction of the MIC value of CIP: compound at a quarter of the MIC; for CIP MIC in combination with compounds: compound at ¼ MIC, value is the MIC of ciprofloxacin
Experimental: The resistance modulation effects of compounds with ciprofloxacin (CIP) and tetracycline (TET) antibiotics were evaluated by the MIC reduction method on the Gram-negative E. coli AG100, AG100 A, and the Gram-positive S. aureus ATCC and MRSA strains.
The chemosensitizing activity of benzoxazole-type ligands and their metal complexes was determined based on the MIC values of the antibiotics in the presence of sub-inhibitory concentrations of the compounds (¼ MIC) in both Gram-negative and Gram-positive strains. The MICs were determined in strains by the two-fold broth microdilution method in 96-well plates, using serial dilutions of TET and CIP. The first four rows contained two-fold dilutions of antibiotics, and combinations of the TET and CIP and tested compounds were transferred into the last four rows. The 10^−4 dilution of an overnight bacterial culture in 50 μL of MHB was then measured to each well, except for the medium control wells. The plates were kept at 37 °C for 18 h. MIC values of antibiotics and their combination with tested compounds were detected by visual inspection.

[2] = test system: MRC-5 human embryonal lung fibroblast cell line; assay: Cytotoxicity assay (MTT); type: cell-based
Experimental: The MRC-5 human embryonic lung fibroblast cell line (ATCC CCL-171; provider: LGC Promochem, Teddington, UK) was used in the experiments. The cells were cultivated in Eagle’s Minimal Essential Medium (EMEM; Sigma–Aldrich, St. Louis, MO, USA), supplemented with 1% non-essential amino acid mixture, 10% heat-inactivated fetal bovine serum, 2 mM L-glutamine, 1 mM Na-pyruvate, nystatin, and a penicillin–streptomycin mixture in concentrations of 100 U/L and 10 mg/L, respectively. The supplementary components were obtained from Sigma–Aldrich, St. Louis, MO, USA. The cell culture was kept in a humidified atmosphere (5% CO2, 95% air) at 37 °C.
The activity of increasing concentrations of the compounds on cell growth was determined in 96-well flat-bottomed microtiter plates by two-fold serial dilutions of the benzoxazole derivatives. The adherent human embryonic lung fibroblast cells (10^4/well) was seeded in EMEM medium in 96-well microtiter plates for 4 h prior to the assay. The serial dilutions of the compounds were made in a separate plate, and then pipetted to the plates containing the MRC-5 cell line. Culture plates were incubated at 37 °C for 24 h; at the end of the incubation period, 20 μL of MTT (3-(4,5-dimethylthiazol-2-yl)-2,5-diphenyltetrazolium bromide) solution (from a 5 mg/mL stock solution) was measured to each well. After the incubation at 37 °C for 4 h, 100 μL of sodium dodecyl sulfate (SDS) solution (10% SDS in 0.01 M HCl) was added to each well to dissolve the formazan crystals and the samples were further incubated at 37 °C overnight. Cell growth was calculated by measuring the OD at 540 nm (ref. 630 nm) with a Multiscan EX ELISA reader. The cytotoxicity was expressed as IC50 values, defined as the inhibitory dose that reduces the growth of the cells exposed to the tested compounds by 50%.

[3] = test system: S. aureus ATCC 25923; assay: Anti-biofilm effect (crystal violet); type: cell-based, Staphylococcus aureus; conditions: compound at ¼ MIC, 48 h, 30 °C, vs untreated biofilm mass
Experimental: The effect of ligands and their metal complexes on biofilm formation was evaluated on the reference S. aureus ATCC 25923 strain. The biofilm inhibition (%) was calculated based on the mean of absorbance units.
The biofilm production of the S. aureus ATCC 25923 strain was studied in 96-well plates using TSB broth in the presence of compounds. […] The final volume was 200 μL in each well. The samples were incubated at 30 °C for 48 h with gentle agitation (100 rpm). Then, the medium was removed, and the plate was washed with tap water to discard unattached cells. 200 μL CV (0.1% [v/v]) was added to the wells and incubated for 15 min at room temperature. CV was removed from the wells and the plate was washed again with tap water. 200 μL 70% ethanol was transferred to each well and the biofilm formation was determined by measuring the OD at 600 nm using Multiscan EX ELISA reader (Thermo Labsystems, Cheshire, CT, USA). The anti-biofilm effect of compounds was determined as the percentage (%) of decrease in biofilm formation. The assay was repeated a minimum of three times. The results were calculated using a t-test and p-values of <0.001 were considered significant.

[4] = test system: S. aureus ATCC 25923; assay: Real-time ethidium bromide accumulation (efflux pump inhibition); type: cell-based, Staphylococcus aureus; conditions: compounds at ¼ MIC, EB 1 μg/mL, minute 30
Experimental: (§1) Since multidrug resistance EPs are very important factors contributing to multidrug resistance (MDR) in both Gram-positive and Gram-negative bacteria, the inhibition of these pumps could reverse the resistant phenotype and restore the activity of antibiotics. The effect of compounds on ethidium bromide (EB) accumulation was determined by the automated EB method. This assay was used to determine how much of the fluorescent dye and pump substrate EB was accumulated by the bacterial cells in the presence of the tested compounds. The real-time accumulation of EB was monitored for 30 min in both S. aureus and E. coli strains.
(§2) The accumulation of the efflux pump substrate EB was monitored by the automated EB method using a LightCycler real-time thermocycler (LightCycler 1.5, Roche, Indianapolis, IN, USA). An aliquot of an overnight culture of the S. aureus strains in TSB medium was inoculated into fresh TSB medium, and it was incubated until it reached an optical density (OD) of 0.6 at 600 nm. In the case of E. coli strains, the medium applied in the assay was LB broth; the preparation of the inoculum was similar to the one of S. aureus. The cells were washed with phosphate buffered saline (PBS; pH 7.4) and centrifuged at 13,000 × g for 3 min, the pellets were re-suspended in PBS (pH 7.4), and the OD was calibrated to 0.6 at 600 nm. The compounds were measured at ¼ MIC concentration (in double-concentrated form) to the EB solution in PBS. The final concentration of EB was determined according to the MIC and the fluorescent signal produced by this amount of EB. In the case of all strains, the concentration of EB was 1 μg/mL. Then, 10 μL of the EB solution plus the compound were pipetted into standard glass capillary tubes of 20 µL maximum volume (Roche, Indianapolis, USA), and 10 μL of bacterial culture (OD of 0.6 at 600 nm) were transferred to the capillaries. The capillaries containing the samples were placed into the carousel, and the fluorescence was monitored at the FL-2 channel in every minute on a real-time basis.
(§3) Based on the data obtained, the relative fluorescence index (RFI) of the last time point (minute 30) was determined as follows:RFI = (RFtreated − RFuntreated)/RFuntreated(1) where RFtreated is the relative fluorescence (RF) at the last time point of the EB retention curve in the presence of an inhibitor, and RFuntreated is the relative fluorescence at the last time point of the EB retention curve of the untreated control having the solvent control (DMSO).

[5] = test system: S. aureus 272123 (MRSA); assay: as above; type: cell-based, Staphylococcus aureus; conditions: compounds at ¼ MIC (3 at 12.5 µM), VER at 25 µM, EB 1 μg/mL, minute 30
Experimental: as §1, §2, §3

Compound	Reduction of the MIC value of CIP [1] [fold]	CIP MIC in combination with compounds [1] [µM]	Cytotoxic effect (class in words) ([2]; 24 h)	IC50 ([2]; Homo sapiens, MRC5, 24 h) [µM]	Biofilm inhibition [3] [%]	Relative fluorescence index (RFI) [4]	Relative fluorescence index (RFI) [5]	IC50 ([2]; 24 h) [µM]
O=C(Cc1nc2ccccc2o1)C(F)F [Compound 3]	2	6.25	moderate (IC50: 31–60)	44.5	16.4	−0.01	0.13	
[O-]C(=Cc1nc2ccccc2o1)C(F)(F)Cl.[O-]C(=Cc1nc2ccccc2o1)C(F)(F)Cl.[Zn+2] [Compound 5]	2	6.25				0.03	−0.13	24.6
[Fe+3].[O-]C(=Cc1nc2ccccc2o1)C(F)(F)F.[O-]C(=Cc1nc2ccccc2o1)C(F)(F)F.[O-]C(=Cc1nc2ccccc2o1)C(F)(F)F [Compound 12]	2	6.25	no (IC50 > 100 µM)		75	−0.02	−0.02	> 100
